From patent US20080124285A1, “Merocyanine Derivatives for Cosmetic Use” (priority 2003, published 2008)

assay: UV absorption maximum (λmax) in solvent; format: physicochemical; conditions: acetonitril; preparation example

Row | λmax [nm] | Compound
1 | 389 | CCOC(=O)/C(C#N)=C1\C=C(NCCNC2=C/C(=C(/C#N)C(=O)OCC)CC(C)(C)C2)CC(C)(C)C1 [MC02]

same assay, conditions: ethanol; preparation example

Row | λmax [nm] | Compound
2 | 406 | CCOC(=O)/C(C#N)=C1\C=C(N2CCN(C3=C/C(=C(/C#N)C(=O)OCC)CC(C)(C)C3)CC2)CC(C)(C)C1 [MC07]
3 | 373 | CCOC(=O)C(C(=O)OCC)=C1C=C(NC2CCCCC2NC2=CC(=C(C(=O)OCC)C(=O)OCC)CC(C)(C)C2)CC(C)(C)C1 (centres unmarked) [MC10]

same assay, conditions: in Acetonitril; Table MC1a (intermediates, UV-B absorbers)

Row | λmax [nm] | Compound
4 | 295(Acetonitril) nm | CC1(C)CC(=O)C=C(NC2CCCCC2NC2=CC(=O)CC(C)(C)C2)C1 (centres unmarked) [MC08a]

same assay, conditions: in Acetonitrile; Table MC1

Row | λmax [nm] | Compound
5 | 383(Aceto-nitrile) nm | CC1(C)CC(NCC2(C)CC(NC3=CC(=C(C#N)C#N)CC(C)(C)C3)CC(C)(C)C2)=CC(=C(C#N)C#N)C1 (centres unmarked) [MC37]

same assay, conditions: in EtOH; Table MC1

Row | Compound | λmax [nm]
6 | CCCCC(CC)COC(=O)/C(C#N)=C1/C=C(NCCNC2=C/C(=C(\C#N)C(=O)OCC(CC)CCCC)CC(C)(C)C2)CC(C)(C)C1 (centres unmarked) [MC01] | 366,398(EtOH) nm
7 | CCOC(=O)C(C(=O)OCC)=C1C=C(NC2CCCCC2NC2=CC(=C(C(=O)OCC)C(=O)OCC)CC(C)(C)C2)CC(C)(C)C1 (centres unmarked) [MC10] | 384(EtOH) nm
8 | CCOC(=O)C(C(=O)OCC)=C1C=C(NCCCCCCNC2=CC(=C(C(=O)OCC)C(=O)OCC)CCC2)CCC1 [MC19] | 370(EtOH) nm
9 | CCOC(=O)/C(C#N)=C1\C=C(NC2CC(C)(C)CC(C)(CNC3=C/C(=C(\C#N)C(=O)OCC)CC(C)(C)C3)C2)CC(C)(C)C1 (centres unmarked) [MC24] | 391(EtOH) nm
10 | CC1(C)CC(NC2CCCCC2NC2=CC(=C(C#N)C#N)CC(C)(C)C2)=CC(=C(C#N)C#N)C1 (centres unmarked) [MC34] | 357/388(EtOH)
11 | COC(=O)C(C(=O)OC)=C1C=C(NC2CCCCC2NC2=CC(=C(C(=O)OC)C(=O)OC)CCC2)CCC1 (centres unmarked) [MC35] | 389(EtOH) nm
12 | CCCCC(CC)COC(=O)/C(C#N)=C1/C=C(NC2CCCCC2NC2=C/C(=C(\C#N)C(=O)OCC(CC)CCCC)CCC2)CCC1 (centres unmarked) [MC36] | 401(EtOH) nm

Second part, the molecule after the results:

Row | λmax [nm] | Compound
13 | 366,398(EtOH) nm | CCOC(=O)/C(C#N)=C1\C=C(NCCNC2=C/C(=C(/C#N)C(=O)OCC)CC(C)(C)C2)CC(C)(C)C1 [MC02]
14 | 383(EtOH) nm | CCOC(=O)C(C(=O)OCC)=C1C=C(NCCNC2=CC(=C(C(=O)OCC)C(=O)OCC)CC(C)(C)C2)CC(C)(C)C1 [MC03]
15 | 406(EtOH) nm | CCOC(=O)/C(C#N)=C1\C=C(N2CCN(C3=C/C(=C(/C#N)C(=O)OCC)CC(C)(C)C3)CC2)CC(C)(C)C1 [MC07]
16 | 373(EtOH) nm | CCOC(=O)C(C(=O)OCC)=C1C=C(N2CCN(C3=CC(=C(C(=O)OCC)C(=O)OCC)CC(C)(C)C3)CC2)CC(C)(C)C1 [MC08]
17 | 388(EtOH) nm | CCOC(=O)/C(C#N)=C1\C=C(NCCCCCCNC2=C/C(=C(/C#N)C(=O)OCC)CCC2)CCC1 [MC18]
18 | 378(EtOH) nm | CCOC(=O)C(C(=O)OCC)=C1C=C(NCC2(C)CC(NC3=CC(=C(C(=O)OCC)C(=O)OCC)CC(C)(C)C3)CC(C)(C)C2)CC(C)(C)C1 (centres unmarked) [MC25]

same assay, conditions: in EtOH; Table MC1a (intermediates, UV-B absorbers)

Row | λmax [nm] | Compound
19 | 296 (EtOH) nm | CC1(C)CC(=O)C=C(NCCNC2=CC(=O)CC(C)(C)C2)C1 [MC01a]
20 | 309 (EtOH) nm | CC1(C)CC(=O)C=C(N2CCN(C3=CC(=O)CC(C)(C)C3)CC2)C1 [MC06a]
